# Measured values as given in article PMC12541554, “Production of the Antimicrobial Roseoflavin With Genetically Engineered Corynebacterium glutamicum” (Microbial Biotechnology, 2025).
# Columns and labels:
# RibF^Sda = biological target: T1, RibF^Sda (Streptomyces davaonensis, UniProt K4R340); assay: fluorescent ADP detection kinase assay, crude extract; format: biochemical; conditions: ATP co-substrate; crude extract of overexpressing C. glutamicum with native RibF background; 10 min
# T1 construct: gene ribC1; overexpressed from pVWEx1 in C. glutamicum wild type; crude extract (host's native RibF also present)
# T1 sequence (K4R340 1-319): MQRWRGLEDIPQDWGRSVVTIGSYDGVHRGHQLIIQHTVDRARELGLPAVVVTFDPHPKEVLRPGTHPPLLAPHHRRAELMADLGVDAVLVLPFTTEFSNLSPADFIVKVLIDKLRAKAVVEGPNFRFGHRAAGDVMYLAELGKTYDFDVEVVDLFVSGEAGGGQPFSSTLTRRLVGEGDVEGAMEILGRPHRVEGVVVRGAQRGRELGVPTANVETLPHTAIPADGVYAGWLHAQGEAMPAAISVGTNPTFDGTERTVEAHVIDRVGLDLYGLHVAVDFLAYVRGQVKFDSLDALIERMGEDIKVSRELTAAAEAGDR
# RibF^Cg = biological target: T2, RibF^Cg (Corynebacterium glutamicum, UniProt Q8NP47); assay: as above; format: biochemical; conditions: ATP co-substrate; crude extract of overexpressing C. glutamicum; 10 min
# T2 construct: gene Cgl1978; overexpressed from pVWEx1 in C. glutamicum wild type; crude extract
# T2 sequence (Q8NP47 1-341): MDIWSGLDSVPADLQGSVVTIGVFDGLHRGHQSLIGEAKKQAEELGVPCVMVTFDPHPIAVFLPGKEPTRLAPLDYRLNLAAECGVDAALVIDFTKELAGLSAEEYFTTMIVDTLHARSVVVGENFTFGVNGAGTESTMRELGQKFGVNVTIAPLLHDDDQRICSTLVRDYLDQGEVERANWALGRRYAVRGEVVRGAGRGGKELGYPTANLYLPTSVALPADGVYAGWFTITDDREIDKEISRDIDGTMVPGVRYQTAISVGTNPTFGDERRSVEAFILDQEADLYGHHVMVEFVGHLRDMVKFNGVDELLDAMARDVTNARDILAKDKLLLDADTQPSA
Compound,"fluorescent ADP detection kinase assay, crude extract (RibF^Sda)","fluorescent ADP detection kinase assay, crude extract (RibF^Cg)"
Cc1cc2nc3c(=O)[nH]c(=O)nc-3n(C[C@H](O)[C@H](O)[C@H](O)CO)c2cc1C [riboflavin],RibF^Sda also showed lower kinase activity in the presence of RF,overexpression of both ribF genes resulted in kinase activity when RF or RoF was added
Cc1cc2nc3c(=O)[nH]c(=O)nc-3n(C[C@H](O)[C@H](O)[C@H](O)CO)c2cc1N(C)C [roseoflavin],activity of RibF^Sda was significantly lower in the presence of RoF,overexpression of both ribF genes resulted in kinase activity when RF or RoF was added
